From PMC10536391, “Inhibition of the hERG Potassium Channel by a Methanesulphonate-Free E-4031 Analogue” (Pharmaceuticals, 2023)

How the values were obtained:
Assay type in all cases: cell-based
[1] = target: T1, hERG potassium channel (human Ether-à-go-go Related Gene) (Homo sapiens, UniProt Q12809, N588K); assay: whole-cell patch-clamp, single concentration […]; details: read-out: % of control tail current at 300 nM
T1 construct: gene KCNH2; N588K hERG transiently expressed in HEK 293 cells

[2] = target: T2, hERG potassium channel (human Ether-à-go-go Related Gene) (Homo sapiens, UniProt Q12809, F557L); assay: whole-cell patch-clamp, single concentration […]; details: read-out: % of control tail current at 300 nM
T2 construct: gene KCNH2; F557L hERG transiently expressed in HEK 293 cells

[3] = target: T3, hERG potassium channel (human Ether-à-go-go Related Gene) (Homo sapiens, UniProt Q12809, T623A); assay: whole-cell patch-clamp, inward tail current in […] K+, […]; details: read-out: % of control tail current at 300 nM
T3 construct: gene KCNH2; T623A hERG transiently expressed in HEK 293 cells

[4] = target: T4, hERG potassium channel (human Ether-à-go-go Related Gene) (Homo sapiens, UniProt Q12809, S624A); assay: whole-cell patch-clamp, single concentration […]; details: read-out: % of control tail current at 300 nM
T4 construct: gene KCNH2; S624A hERG transiently expressed in HEK 293 cells

[5] = target: T5, hERG potassium channel (human Ether-à-go-go Related Gene) (Homo sapiens, UniProt Q12809); assay: whole-cell patch-clamp, hERG tail current, […] °C
T5 construct: gene KCNH2; wild-type hERG stably expressed in HEK 293 cells

SMILES: Cc1ccc(C(=O)C2CCN(CCc3ccccc3)CC2)cc1 [E-4031-17]
- activity at 0.3 µM [1]: 43.2%
- activity at 0.3 µM [2]: 57.9%
- activity at 0.3 µM [3]: 69.7%
- activity at 0.3 µM [4]: 57.2%
- IC50 [5]: 40.3 nM
